Legend:
CD8+ T cells = assay: In vitro immunogenicity: T-cell priming with aAPCs loaded with HLA-A*24 peptide/MHC and anti-CD28, multimer staining; format: cell-based, human; settings: HLA-A*24 peptides; for in vitro immunogenicity, wells: positive wells after priming
Description: CD8+ T cells were primed using artificial APCs coated with anti-CD28 mAb and HLA-A*24 in complex with SEQ ID NO: 99 peptide (FIG. 5A, left panel), SEQ ID NO: 119 peptide (FIG. 5B, left panel), SEQ ID NO: 142 peptide (FIG. 5C, left panel) and SEQ ID NO: 174 peptide FIG. 5 (D, left panel), respectively. After three cycles of stimulation, the detection of peptide-reactive cells was performed by 2D multimer staining with A*24/SEQ ID NO: 99 (FIG. 5A), A*24/SEQ ID NO: 119 (FIG. 5B), A*24/SEQ ID NO: 142 (FIG. 5C) or A*24/SEQ ID NO: 174 (FIG. 5D). Right panels (FIGS. 5A,5B,5C and 5D) show control staining of cells stimulated with irrelevant A*24/peptide complexes. Viable singlet cells were gated for CD8+ lymphocytes. Boolean gates helped excluding false-positive events detected with multimers specific for different peptides. Frequencies of specific multimer+ cells among CD8+ lymphocytes are indicated.
Generation of pMHC/anti-CD28 coated beads, T-cell stimulations and readout was performed in a highly defined in vitro system using four different pMHC molecules per stimulation condition and 8 different pMHC molecules per readout condition.
The purified co-stimulatory mouse IgG2a anti human CD28 Ab 9.3 (Jung et al., 1987) was chemically biotinylated using Sulfo-N-hydroxysuccinimidobiotin as recommended by the manufacturer (Perbio, Bonn, Germany). Beads used were 5.6 μm diameter streptavidin coated polystyrene particles (Bangs Laboratories, Illinois, USA).
800.000 beads/200 μl were coated in 96-well plates in the presence of 4×12.5 ng different biotin-pMHC, washed and 600 ng biotin anti-CD28 were added subsequently in a volume of 200 μl. Stimulations were initiated in 96-well plates by co-incubating 1×10^6 CD8+ T cells with 2×10^5 washed coated beads in 200 μl TCM supplemented with 5 ng/ml IL-12 (PromoCell) for 3 days at 37° C. Half of the medium was then exchanged by fresh TCM supplemented with 80 U/ml IL-2 and incubating was continued for 4 days at 37° C. This stimulation cycle was performed for a total of three times. For the pMHC multimer readout using 8 different pMHC molecules per condition, a two-dimensional combinatorial coding approach was used as previously described (Andersen et al., 2012) with minor modifications encompassing coupling to 5 different fluorochromes. Finally, multimeric analyses were performed by staining the cells with Live/dead near IR dye (Invitrogen, Karlsruhe, Germany), CD8-FITC antibody clone SK1 (BD, Heidelberg, Germany) and fluorescent pMHC multimers. For analysis, a BD LSRII SORP cytometer equipped with appropriate lasers and filters was used. Peptide specific cells were calculated as percentage of total CD8+ cells. Evaluation of multimeric analysis was done using the FlowJo software (Tree Star, Oregon, USA). In vitro priming of specific multimer+CD8+ lymphocytes was detected by comparing to negative control stimulations.

HLA-A*24 = assay: MHC binding assay, UV-ligand exchange with beta2m ELISA (exchange yield), HLA-A*24; parameters: species or system human; settings: binding to HLA-A*24, UV-ligand exchange
Outline: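 Peptide–MHC complexes formed by UV-ligand exchange: a UV-cleavable peptide is replaced by the test peptide, and only binders keep the complex stable. Exchange yield read by streptavidin-capture ELISA on reactions diluted 100-fold, detected with HRP anti-β2m (2 ug/ml, 1 h, 37° C) and TMB at 450 nm.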

Peptide exchange (MHC class I binding score, peptide exchange yield) (HLA-A*24) | Substance | in vitro immunogenicity, Wells positive [%] (CD8+ T cells) | in vitro immunogenicity, wells (CD8+ T cells)
++++ (>=75% = ++++) | 172 (VFIFKGNEF; listed as Homo sapiens) [compound 172] | + (<20% = +) | –
++++ (>=75% = ++++) | 186 (VFTTSSNIF; listed as Homo sapiens) [compound 186] | + (<20% = +) | –
+++ (50%-75% = +++) | 180 (KYLQVVGMF; listed as Homo sapiens) [compound 180] | + (<20% = +) | –
+++ (50%-75% = +++) | 102 (VYPFENFEF; listed as Homo sapiens) [compound 102] | +++ (50%-69% = +++) | –
+++ (50%-75% = +++) | 358 (YYSEVPVKL; listed as Homo sapiens) [compound 358] | ++++ (>=70% = ++++) | –
+++ (50%-75% = +++) | 174 (VYEKNGYIYF; listed as Homo sapiens) [compound 174] | ++++ (>=70% = ++++) | –
++++ (>=75% = ++++) | 104 (SYLTWHQQI; listed as Homo sapiens) [compound 104] | + (<20% = +) | –
– | 393 (KYIEAIQWI; listed as Homo sapiens) [compound 393] | – | ++ (20%-49% = ++)
+++ (50%-75% = +++) | 344 (EYNSDLHQF; listed as Homo sapiens) [compound 344] | + (<20% = +) | –
++++ (>=75% = ++++) | 170 (QYPFHVPLL; listed as Homo sapiens) [compound 170] | +++ (50%-69% = +++) | –
+++ (50%-75% = +++) | 175 (LYSPVPFTL; listed as Homo sapiens) [compound 175] | + (<20% = +) | –
+++ (50%-75% = +++) | 119 (VYRVYVTTF; listed as Homo sapiens) [compound 119] | +++ (50%-69% = +++) | –
+++ (50%-75% = +++) | 350 (KYGNFIDKL; listed as Homo sapiens) [compound 350] | +++ (50%-69% = +++) | –
+++ (50%-75% = +++) | 142 (VYVDDIYVI; listed as Homo sapiens) [compound 142] | ++++ (>=70% = ++++) | –
++++ (>=75% = ++++) | 120 (GYIEHFSLW; listed as Homo sapiens) [compound 120] | ++ (20%-49% = ++) | –
+++ (50%-75% = +++) | 345 (EYNSDLHQFF; listed as Homo sapiens) [compound 345] | ++ (20%-49% = ++) | –
+++ (50%-75% = +++) | 111 (VYVQILQKL; listed as Homo sapiens) [compound 111] | + (<20% = +) | –
++++ (>=75% = ++++) | 144 (VFASLPGFLF; listed as Homo sapiens) [compound 144] | ++ (20%-49% = ++) | –
+++ (50%-75% = +++) | 354 (VYNEQIRDLL; listed as Homo sapiens) [compound 354] | + (<20% = +) | –
++ (20%-49% = ++) | 363 (SYAELGTTI; listed as Homo sapiens) [compound 363] | + (<20% = +) | –
+++ (50%-75% = +++) | 167 (RYGFYYVEF; listed as Homo sapiens) [compound 167] | ++++ (>=70% = ++++) | –

Peptide exchange (MHC class I binding score, peptide exchange yield) (HLA-A*24) | Substance | in vitro immunogenicity, Wells positive [%] (CD8+ T cells) | in vitro immunogenicity, wells (CD8+ T cells)
+++ (50%-75% = +++) | 353 (TYGKIDLGF; listed as Homo sapiens) [compound 353] | + (<20% = +) | –
– | 414 (MYPYIYHVL; listed as Homo sapiens) [compound 414] | – | ++ (20%-49% = ++)
+++ (50%-75% = +++) | 107 (KYFPYLVVI; listed as Homo sapiens) [compound 107] | ++ (20%-49% = ++) | –
+++ (50%-75% = +++) | 105 (IYNETITDLL; listed as Homo sapiens) [compound 105] | + (<20% = +) | –
+++ (50%-75% = +++) | 190 (LYSELTETL; listed as Homo sapiens) [compound 190] | ++++ (>=70% = ++++) | –
+++ (50%-75% = +++) | 106 (IYNETVRDLL; listed as Homo sapiens) [compound 106] | + (<20% = +) | –
++ (20%-49% = ++) | 367 (LYQDHMQYI; listed as Homo sapiens) [compound 367] | ++ (20%-49% = ++) | –
+++ (50%-75% = +++) | 110 (SYPKIIEEF; listed as Homo sapiens) [compound 110] | ++ (20%-49% = ++) | –
+++ (50%-75% = +++) | 112 (IYNFVESKL; listed as Homo sapiens) [compound 112] | +++ (50%-69% = +++) | –
+++ (50%-75% = +++) | 161 (KYPDIVQQF; listed as Homo sapiens) [compound 161] | + (<20% = +) | –
++++ (>=75% = ++++) | 156 (YYMELTKLLL; listed as Homo sapiens) [compound 156] | + (<20% = +) | –
++++ (>=75% = ++++) | 380 (VYTGIDHHW; listed as Homo sapiens) [compound 380] | + (<20% = +) | –
– | 400 (KYLEKYYNL; listed as Homo sapiens) [compound 400] | – | ++ (20%-49% = ++)
+++ (50%-75% = +++) | 366 (QYLELAHSL; listed as Homo sapiens) [compound 366] | ++ (20%-49% = ++) | –
+++ (50%-75% = +++) | 158 (IYEETRGVLKVF; listed as Homo sapiens) [compound 158] | + (<20% = +) | –
+++ (50%-75% = +++) | 98 (VFPRLHNVLF; listed as Homo sapiens) [compound 98] | + (<20% = +) | –
++++ (>=75% = ++++) | 137 (EYLHNCSYF; listed as Homo sapiens) [compound 137] | + (<20% = +) | –
++++ (>=75% = ++++) | 356 (NYMPGQLTI; listed as Homo sapiens) [compound 356] | + (<20% = +) | –
– | 407 (VYGIRLEHF; listed as Homo sapiens) [compound 407] | – | +++ (50%-69% = +++)
– | 399 (SYIDVLPEF; listed as Homo sapiens) [compound 399] | – | ++ (20%-49% = ++)

Source: patent US10130693B2, “Peptides, combination of peptides and scaffolds for use in immunotherapeutic treatment of various cancers” (Immatics Biotechnologies GmbH, priority 2015, dated 2018)
